Results published in US20240390352A1, “PHARMACEUTICAL COMPOSITION FOR PREVENTING OR TREATING CANCER COMPRISING CARNITINE ACYLCARNITINE CARRIER INHIBITOR AND ANTITUMOR AGENT” (NEW CANCER CURE - BIO CO.,LTD., priority 2021, published 2024).

What was measured:
Type in all cases: cell-based
PC-3 cells = test: SRB assay cancer cell growth rate, PC-3; details: relative to control (100%), 48 hours, KN510 200 μM, irinotecan 2.5 μM, 5-FU 5 μM, gemcitabine 2.5 μM, paclitaxel 10 nM, cisplatin 1 μM, alone or KN510 + anticancer drug
[1] = tested on: pancreatic ductal adenocarcinoma (PDAC) cell lines, MIA PaCa-2 cells and PANC-1 cells; test: Synergistic effect of omeprazole and anticancer drug, pancreatic cancer cell lines; details: anticancer drug combined with omeprazole (KN510) versus each treatment alone
[2] = tested on: prostate cancer cells, PC-3 cells and DU-145 cells; test: Synergistic effect of omeprazole and anticancer drug, prostate cancer cells; details: anticancer drug combined with omeprazole (KN510) versus each treatment alone
UACC62 cells = test: SRB assay cancer cell growth rate, UACC62; details: relative to control (100%), 48 hours, KN510 200 μM, irinotecan 2.5 μM, 5-FU 5 μM, gemcitabine 2.5 μM, paclitaxel 10 nM, cisplatin 1 μM, alone or KN510 + anticancer drug
[3] = tested on: renal cell carcinoma cell lines CAKI-1 and ACHN cells; test: Synergistic effect of omeprazole and anticancer drug, renal cancer cell lines; details: anticancer drug combined with omeprazole (KN510) versus each treatment alone
A549 cells = test: SRB assay cancer cell growth rate, A549; details: relative to control (100%), 48 hours, KN510 200 μM, irinotecan 2.5 μM, 5-FU 5 μM, gemcitabine 2.5 μM, paclitaxel 10 nM, cisplatin 1 μM, alone or KN510 + anticancer drug
[4] = tested on: MKN-28 cells and AGS cells, stomach cancer cells; test: Synergistic effect of omeprazole and anticancer drug, stomach cancer cells; details: anticancer drug combined with omeprazole (KN510) versus each treatment alone
[5] = tested on: leukemia cells, SR cells and K562 cells; test: Synergistic effect of omeprazole and anticancer drug, leukemia cells; details: anticancer drug combined with omeprazole (KN510) versus each treatment alone
[6] = tested on: A549 and H23 lung cancer cells; test: Synergistic effect of omeprazole and anticancer drug, lung cancer cells; details: anticancer drug combined with omeprazole (KN510) versus each treatment alone
[7] = tested on: colon cancer cell lines HCT-116 cells and COLO-205 cells; test: Synergistic effect of omeprazole and anticancer drug, colon cancer cell lines; details: anticancer drug combined with omeprazole (KN510) versus each treatment alone
UACC257 cells = test: SRB assay cancer cell growth rate, UACC257; details: relative to control (100%), 48 hours, KN510 200 μM, irinotecan 2.5 μM, 5-FU 5 μM, gemcitabine 2.5 μM, paclitaxel 10 nM, cisplatin 1 μM, alone or KN510 + anticancer drug
SR cells = test: SRB assay cancer cell growth rate, SR; details: relative to control (100%), 48 hours, KN510 200 μM, irinotecan 2.5 μM, 5-FU 5 μM, gemcitabine 2.5 μM, paclitaxel 10 nM, cisplatin 1 μM, alone or KN510 + anticancer drug
[8] = tested on: ovarian cancer cells, OVCAR-8 cells and SK-OV-3 cells; test: Synergistic effect of omeprazole and anticancer drug, ovarian cancer cells; details: anticancer drug combined with omeprazole (KN510) versus each treatment alone
[9] = tested on: melanoma cell lines UACC62 cells and UACC257 cells; test: Synergistic effect of omeprazole and anticancer drug, melanoma cell lines; details: anticancer drug combined with omeprazole (KN510) versus each treatment alone
OVCAR-8 cells = test: SRB assay cancer cell growth rate, OVCAR-8; details: relative to control (100%), 48 hours, KN510 200 μM, irinotecan 2.5 μM, 5-FU 5 μM, gemcitabine 2.5 μM, paclitaxel 10 nM, cisplatin 1 μM, alone or KN510 + anticancer drug
[10] = tested on: glioblastoma (GBM) cell lines, U-87 MG cells and T87G cells; test: Synergistic effect of omeprazole and anticancer drug, glioblastoma cell lines; details: anticancer drug combined with omeprazole (KN510) versus each treatment alone
CAKI-1 cells = test: SRB assay cancer cell growth rate, CAKI-1; details: relative to control (100%), 48 hours, KN510 200 μM, irinotecan 2.5 μM, 5-FU 5 μM, gemcitabine 2.5 μM, paclitaxel 10 nM, cisplatin 1 μM, alone or KN510 + anticancer drug
HCT-116 cells = test: SRB assay cancer cell growth rate, HCT-116; details: relative to control (100%), 48 hours, KN510 200 μM, irinotecan 2.5 μM, 5-FU 5 μM, gemcitabine 2.5 μM, paclitaxel 10 nM, cisplatin 1 μM, alone or KN510 + anticancer drug
[11] = tested on: breast cancer cells, MDA-MB-231 cells and MCF-7 cells; test: Synergistic effect of omeprazole and anticancer drug, breast cancer cells; details: anticancer drug combined with omeprazole (KN510) versus each treatment alone
ACHN cells = test: SRB assay cancer cell growth rate, ACHN; details: relative to control (100%), 48 hours, KN510 200 μM, irinotecan 2.5 μM, 5-FU 5 μM, gemcitabine 2.5 μM, paclitaxel 10 nM, cisplatin 1 μM, alone or KN510 + anticancer drug
K562 cells = test: SRB assay cancer cell growth rate, K562; details: relative to control (100%), 48 hours, KN510 200 μM, irinotecan 2.5 μM, 5-FU 5 μM, gemcitabine 2.5 μM, paclitaxel 10 nM, cisplatin 1 μM, alone or KN510 + anticancer drug
[12] = tested on: liver cancer cell lines SK-HEP-1 cells and Huh-7 cells; test: Synergistic effect of omeprazole and anticancer drug, liver cancer cell lines; details: anticancer drug combined with omeprazole (KN510) versus each treatment alone

SMILES	PC-3 growth rate average (%) (PC-3 cells)	synergistic effect of omeprazole and an anticancer drug in combination, pancreatic cancer (PDAC) [1]	synergistic effect of omeprazole and an anticancer drug in combination, prostate cancer [2]	UACC62 growth rate average (%) (UACC62 cells)	synergistic effect of omeprazole and an anticancer drug in combination, renal cell carcinoma [3]	A549 growth rate average (%) (A549 cells)	synergistic effect of omeprazole and an anticancer drug in combination, stomach cancer [4]	synergistic effect of omeprazole and an anticancer drug in combination, leukemia [5]	synergistic effect of omeprazole and an anticancer drug in combination, lung cancer [6]	synergistic effect of omeprazole and an anticancer drug in combination, colon cancer [7]	UACC257 growth rate average (%) (UACC257 cells)	SR growth rate average (%) (SR cells)	synergistic effect of omeprazole and an anticancer drug in combination, ovarian cancer [8]	synergistic effect of omeprazole and an anticancer drug in combination, melanoma [9]	OVCAR-8 growth rate average (%) (OVCAR-8 cells)	synergistic effect of omeprazole and an anticancer drug in combination, glioblastoma (GBM) [10]	CAKI-1 growth rate average (%) (CAKI-1 cells)	HCT-116 growth rate average (%) (HCT-116 cells)	synergistic effect of omeprazole and an anticancer drug in combination, breast cancer [11]	ACHN growth rate average (%) (ACHN cells)	other results
Nc1ccn([C@@H]2O[C@H](CO)[C@@H](O)C2(F)F)c(=O)n1 [Gemcitabine]	32.17	Negative effect	Negative effect	53.65	Negative effect	−16.60	Negative effect	Negative effect	Negative effect	Negative effect	30.97	53.15	Negative effect	Negative effect	−14.25	Negative effect	2.30	16.32	Negative effect	−2.82	K562 growth rate average (%) (K562 cells): 53.51%; synergistic effect of omeprazole and an anticancer drug in combination, liver cancer [12]: Negative effect
CCc1c2c(nc3ccc(OC(=O)N4CCC(N5CCCCC5)CC4)cc13)-c1cc3c(c(=O)n1C2)COC(=O)[C@]3(O)CC [Irinotecan]	33.84	Positive effect	Negative effect	−35.63	Positive effect	16.54	Negative effect	Positive effect	Negative effect	Positive effect	21.87	6.26	Negative effect	Positive effect	4.70	Positive effect	44.74	41.85	Positive effect	42.20	synergistic effect of omeprazole and an anticancer drug in combination, pancreatic cancer (PDAC) ([1]; listed as irinotecan): significantly inhibited; synergistic effect of omeprazole and an anticancer drug in combination, renal cell carcinoma ([3]; listed as irinotecan): significantly inhibited; synergistic effect of omeprazole and an anticancer drug in combination, leukemia ([5]; listed as irinotecan): significantly inhibited; synergistic effect of omeprazole and an anticancer drug in combination, colon cancer ([7]; listed as irinotecan): significantly inhibited; synergistic effect of omeprazole and an anticancer drug in combination, melanoma ([9]; listed as irinotecan): significantly inhibited; synergistic effect of omeprazole and an anticancer drug in combination, glioblastoma (GBM) ([10]; listed as irinotecan): significantly inhibited; synergistic effect of omeprazole and an anticancer drug in combination, breast cancer ([11]; listed as irinotecan): significantly inhibited; K562 growth rate average (%) (K562 cells): 46.54%; synergistic effect of omeprazole and an anticancer drug in combination, liver cancer [12]: Positive effect; synergistic effect of omeprazole and an anticancer drug in combination, liver cancer ([12]; listed as irinotecan): significantly inhibited
CC(=O)O[C@H]1C(=O)[C@@]2(C)[C@H]([C@H](OC(=O)c3ccccc3)[C@]3(O)C[C@H](OC(=O)[C@H](O)[C@@H](NC(=O)c4ccccc4)c4ccccc4)C(C)=C1C3(C)C)[C@]1(OC(C)=O)CO[C@@H]1C[C@@H]2O [Paclitaxel]	32.49	Positive effect	Negative effect	48.36	Negative effect	22.67	Positive effect	Positive effect	Positive effect	Positive effect	35.43	94.83	Negative effect	Positive effect	12.64	Positive effect	17.70	17.70	Negative effect	0.91	synergistic effect of omeprazole and an anticancer drug in combination, pancreatic cancer (PDAC) ([1]; listed as paclitaxel): significantly inhibited; synergistic effect of omeprazole and an anticancer drug in combination, stomach cancer ([4]; listed as paclitaxel): significantly inhibited; synergistic effect of omeprazole and an anticancer drug in combination, leukemia ([5]; listed as paclitaxel): significantly inhibited; synergistic effect of omeprazole and an anticancer drug in combination, lung cancer ([6]; listed as paclitaxel): significantly inhibited; synergistic effect of omeprazole and an anticancer drug in combination, colon cancer ([7]; listed as paclitaxel): significantly inhibited; synergistic effect of omeprazole and an anticancer drug in combination, melanoma ([9]; listed as paclitaxel): significantly inhibited; synergistic effect of omeprazole and an anticancer drug in combination, glioblastoma (GBM) ([10]; listed as paclitaxel): significantly inhibited; K562 growth rate average (%) (K562 cells): 59.27%; synergistic effect of omeprazole and an anticancer drug in combination, liver cancer [12]: Negative effect
